# Source: US5916876A, “Peptide inhibitors of leukocyte adhesion” (Centocor, Inc., priority 1994, dated 1999)
# Residues, ends and D or L forms follow the SMILES beside them.
# Biological target: T1, human P-selectin (Homo sapiens, UniProt P16109)
# T1 construct: from tissue; host or cells: outdated human platelet packs from a blood bank
# T1 sequence (P16109 42-830): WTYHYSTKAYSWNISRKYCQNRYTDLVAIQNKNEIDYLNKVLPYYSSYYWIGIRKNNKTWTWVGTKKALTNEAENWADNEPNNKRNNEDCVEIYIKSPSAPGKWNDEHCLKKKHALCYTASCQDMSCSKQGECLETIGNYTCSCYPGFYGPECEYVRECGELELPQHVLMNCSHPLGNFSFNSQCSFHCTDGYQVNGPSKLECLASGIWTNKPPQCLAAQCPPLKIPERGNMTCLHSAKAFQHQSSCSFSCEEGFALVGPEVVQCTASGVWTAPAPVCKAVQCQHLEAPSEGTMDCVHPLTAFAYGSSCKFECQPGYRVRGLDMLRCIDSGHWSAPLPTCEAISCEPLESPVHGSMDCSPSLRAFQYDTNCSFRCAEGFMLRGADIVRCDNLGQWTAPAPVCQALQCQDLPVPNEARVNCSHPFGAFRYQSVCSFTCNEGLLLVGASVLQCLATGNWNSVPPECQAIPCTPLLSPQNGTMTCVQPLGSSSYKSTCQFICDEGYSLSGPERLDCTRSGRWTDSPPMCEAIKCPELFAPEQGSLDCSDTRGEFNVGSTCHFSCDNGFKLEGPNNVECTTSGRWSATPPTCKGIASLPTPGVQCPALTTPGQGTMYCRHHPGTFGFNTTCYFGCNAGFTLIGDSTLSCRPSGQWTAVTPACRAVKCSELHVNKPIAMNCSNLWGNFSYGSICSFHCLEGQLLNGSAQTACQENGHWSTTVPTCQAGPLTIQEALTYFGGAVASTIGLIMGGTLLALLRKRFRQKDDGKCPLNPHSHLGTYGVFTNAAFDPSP
# Test: Neutrophil adhesion to purified P-selectin immobilized on plastic wells (myeloperoxidase readout)
# Type: cell-based
# Conditions: inhibition of binding of human neutrophils to human P-selectin; head: 0.3 μM peptide, text b193: 300 μM; read-out: % INHIBITION AT 0.3 μM PEPTIDE CONC.
# From the text: Peptides can be screened for their ability to inhibit adhesion to cells, for example, neutrophil adhesion to purified P-selectin immobilized on plastic wells, using the assay described by Geng, et al., Nature 343, 757-760 (1990).
# Human neutrophils are isolated from heparinized whole blood by density gradient centrifugation on Mono-Poly resolving media, Flow Laboratories. Neutrophil suspensions are greater than 98% pure and greater than 95% viable by trypan blue exclusion. For adhesion assays, neutrophils are suspended at a concentration of 2×10^6 cells/mL in Hanks' balanced salt solution containing 1.26 mM Ca^2+ and 0.81 mM Mg^2+ (HBSS, Gibco) with […] human serum albumin (HBSS/HSA). Adhesion assays are conducted in triplicate in 96-well microtiter plates, Corning, incubated at 4° C. overnight with 50 microliters of various protein solutions.
# P-selectin is isolated from human platelet lysates by immunoaffinity chromatography on antibody S12-Sepharose™ and ion-exchange chromatography on a Mono-Q™ column (FLPC, Pharmacia Fine Chemicals), as follows.
# Outdated human platelet packs (100 units) obtained from a blood bank and stored at 4° C. are pooled, adjusted to 5 mM EDTA at pH 7.5, centrifuged at 4,000 rpm for 30 minutes in 1 liter bottles, then washed three times with 1 liter of 0.1 M NaCl, 20 mM Tris pH 7.5 (TBS), 5 mM EDTA, 5 mM benzamidine.
# The pellets are then resuspended in a minimum amount of wash buffer and made 1 mM in DIFP, then frozen in 50 mL screwtop tubes at -80° C. The frozen platelets are thawed and resuspended in 50 mL TBS, 5 mM benzamidine, 5 mM EDTA pH 7.5, 100 µM leupeptin. The suspension is frozen and thawed two times in a dry ice-acetone bath using a 600 mL lyophilizing flask, then homogenized in a glass/teflon mortar and pestle and made 1 mM in DIFP. The NaCl concentration is adjusted to 0.5 M with a stock solution of 4 M NaCl. After stirring the suspension at 4° C., it is centrifuged in polycarbonate tubes at 33,000 rpm for 60 minutes at 4° C. The supernatant (0.5 M NaCl wash) is removed and saved; this supernatant contains the soluble form of P-selectin. Care is taken not to remove the top part of the pellet with the supernatant. The pellets are then homogenized in extraction buffer (TBS, 5 mM benzamidine, 5 mM EDTA, pH 7.5, 100 μM leupeptin, 2% Triton X-100). After centrifugation at 19,500 rpm for 25 minutes at 4° C., the supernatant is removed. The extraction procedure is repeated with the pellet and the supernatant is combined with the first supernatant. The combined extracts, which contain the membrane form of P-selectin, are adjusted to 0.5 M NaCl.
# The soluble fraction (0.5 M NaCl wash) and the membrane extract (also adjusted to 0.5 M NaCl) are absorbed with separate pools of the monoclonal antibody S12 (directed to P-selectin) previously coupled to Affigel (Biorad) at 5 mg/mL for 2 hours at 4° C. After letting the resins settle, the supernatants are removed. The S12 Affigel containing bound GMP-140 is then loaded into a column and washed overnight at 4° C. with 400 mL of 0.5 M NaCl, 20 mM Tris pH 7.5, 0.01% Lubrol PX.
# Bound P-selectin is eluted from the S12 Affigel with 100 mL of 80% ethylene glycol, 1 mM MES pH 6.0, 0.01% Lubrol PX. Peak fractions with absorbance at 280 nm are pooled. Eluates are dialyzed against TBS with 0.05% Lubrol, then applied to a Mono Q column (FPLC from Pharmacia). The concentrated protein is step eluted with 2 M NaCl, 20 mM Tris pH 7.5 (plus 0.05% Lubrol PX for the membrane fraction). Peak fractions are dialyzed into TBS pH 7.5 (plus 0.05% Lubrol PX for the membrane fraction).
# P-selectin is plated at 5 micrograms/mL and the control proteins: human serum albumin (Alb), platelet glycoprotein IIb/IIIa (IIb), von Willebrand factor (vWF), fibrinogen (FIB), thrombomodulin (TM), gelatin (GEL) or human serum (HS), are added at 50 micrograms/mL. […]
row,SMILES,inhibition at 300 µM [%]
1,"CC(C)C[C@H](NC(=O)[C@@H](NC(=O)[C@@H](N)CCCCN)C(C)C)C(=O)N1CCC[C@H]1C(=O)N[C@@H](Cc1ccc(O)cc1)C(=O)N[C@@H](Cc1ccc(O)cc1)C(=O)N[C@@H](CO)C(=O)N[C@@H](C)C(=O)N[C@@H](Cc1ccc(O)cc1)C(=O)N[C@@H](Cc1ccc(O)cc1)C(N)=O [SEQ ID NO: 14, Lys--Val--Leu--Pro--Tyr--Tyr--Ser--Ala--Tyr--Tyr-NH2] (H-KVLPYYSAYY-NH2)",18
2,"CC(C)C[C@H](NC(=O)[C@H](Cc1ccc(O)cc1)NC(=O)[C@@H](N)CC(=O)O)C(=O)N[C@@H](CC(N)=O)C(=O)N[C@@H](CCCCN)C(=O)N[C@H](C(=O)N[C@@H](CC(C)C)C(=O)N1CCC[C@H]1C(=O)N[C@@H](Cc1ccc(O)cc1)C(=O)N[C@@H](Cc1ccc(O)cc1)C(=O)N[C@@H](CO)C(=O)N[C@@H](CO)C(=O)N[C@@H](Cc1ccc(O)cc1)C(=O)N[C@@H](Cc1ccc(O)cc1)C(N)=O)C(C)C [SEQ ID NO: 6, Asp--Tyr--Leu--Asn--Lys--Val--Leu--Pro--Tyr--Tyr--Ser--Ser--Tyr--Tyr-NH2] (H-DYLNKVLPYYSSYY-NH2)",61
3,"CC(C)[C@H](NC(=O)[C@@H](N)CCCCN)C(=O)N[C@@H](CCC(N)=O)C(=O)N1CCC[C@H]1C(=O)N[C@@H](Cc1ccc(O)cc1)C(=O)N[C@@H](Cc1ccc(O)cc1)C(=O)N[C@@H](CO)C(=O)N[C@@H](CO)C(=O)N[C@@H](Cc1ccc(O)cc1)C(=O)N[C@@H](Cc1ccc(O)cc1)C(N)=O [SEQ ID NO: 22, Lys--Val--Gln--Pro--Tyr--Tyr--Ser--Ser--Tyr--Tyr-NH2] (H-KVQPYYSSYY-NH2)",29
4,"CC(C)C[C@H](NC(=O)[C@@H](N)C(C)C)C(=O)N1CCC[C@H]1C(=O)N[C@@H](Cc1ccc(O)cc1)C(=O)N[C@@H](Cc1ccc(O)cc1)C(=O)N[C@@H](CO)C(=O)N[C@@H](CO)C(=O)N[C@@H](Cc1ccc(O)cc1)C(=O)N[C@@H](Cc1ccc(O)cc1)C(=O)N[C@H](C(N)=O)C(C)C [SEQ ID NO: 10, Val--Leu--Pro--Tyr--Tyr--Ser--Ser--Tyr--Tyr--Val-NH2] (H-VLPYYSSYYV-NH2)",66

# More lines, now with the values ahead:
row,inhibition at 300 µM [%],SMILES
1,102,"CC(C)C[C@H](NC(=O)[C@@H](NC(=O)[C@@H](N)CCCCN)C(C)C)C(=O)N1CCC[C@H]1C(=O)N[C@@H](Cc1ccc(O)cc1)C(=O)N[C@@H](Cc1ccc(O)cc1)C(=O)N[C@@H](CO)C(=O)N[C@@H](CO)C(=O)N[C@@H](Cc1ccc(O)cc1)C(=O)N[C@@H](Cc1ccc(O)cc1)C(=O)N[C@H](C(N)=O)C(C)C [SEQ ID NO: 5, Lys--Val--Leu--Pro--Tyr--Tyr--Ser--Ser--Tyr--Tyr--Val-NH2] (H-KVLPYYSSYYV-NH2)"
2,54,"CC[C@H](C)[C@H](NC(=O)[C@H](CO)NC(=O)[C@H](CC(N)=O)NC(=O)[C@H](CC(C)C)NC(=O)[C@H](Cc1ccc(O)cc1)NC(=O)[C@@H](N)CCC(=O)O)C(=O)N[C@@H](CC(C)C)C(=O)N[C@@H](CO)C(=O)N[C@@H](Cc1ccc(O)cc1)C(=O)N[C@@H](CO)C(=O)N1CCC[C@H]1C(=O)N[C@@H](CO)C(=O)N[C@@H](Cc1ccc(O)cc1)C(=O)N[C@@H](Cc1ccc(O)cc1)C(=O)N[C@@H](Cc1c[nH]c2ccccc12)C(N)=O [SEQ ID NO: 23, Glu--Tyr--Leu--Asn--Ser--Ile--Leu--Ser--Tyr--Ser--Pro--Ser--Tyr--Tyr--Trp-NH2] (H-EYLNSILSYSPSYYW-NH2)"
3,100,"CC(C)C[C@H](NC(=O)[C@@H](NC(=O)[C@H](CCCCN)NC(=O)[C@H](CC(N)=O)NC(=O)[C@@H](N)CC(C)C)C(C)C)C(=O)N1CCC[C@H]1C(=O)N[C@@H](Cc1ccc(O)cc1)C(=O)N[C@@H](Cc1ccc(O)cc1)C(=O)N[C@@H](CO)C(=O)N[C@@H](CO)C(=O)N[C@@H](Cc1ccc(O)cc1)C(=O)N[C@@H](Cc1ccc(O)cc1)C(=O)N[C@H](C(N)=O)C(C)C [SEQ ID NO: 3, Leu--Asn--Lys--Val--Leu--Pro--Tyr--Tyr--Ser--Ser--Tyr--Tyr--Val-NH2] (H-LNKVLPYYSSYYV-NH2)"
4,34,"CC(C)C[C@H](NC(=O)[C@@H](NC(=O)[C@@H](N)CCCCN)C(C)C)C(=O)N1CCC[C@H]1C(=O)N[C@@H](Cc1ccc(O)cc1)C(=O)NCC(=O)N[C@@H](CO)C(=O)N[C@@H](CO)C(=O)N[C@@H](Cc1ccc(O)cc1)C(=O)N[C@@H](Cc1ccc(O)cc1)C(N)=O [SEQ ID NO: 19, Lys--Val--Leu--Pro--Tyr--Gly--Ser--Ser--Tyr--Tyr-NH2] (H-KVLPYGSSYY-NH2)"
